In ChEMBL document CHEMBL4138123, “Design, synthesis and biological evaluation of novel pyrazolochalcones as potential modulators of PI3K/Akt/mTOR pathway and inducers of apoptosis in breast cancer cells” (Eur J Med Chem, 2017):

Legend:
Type in all cases: functional
SF-539 [1] = experiment: Cytotoxicity against human SF539 cells assessed as growth inhibition after 48 hrs by sulforhodamine B assay; conditions: SF-539, 48 h
IGROV-1 = experiment: Cytotoxicity against human IGROV1 cells assessed as cell growth at 100 uM after 48 hrs by sulforhodamine B assay relative to control; conditions: IGROV-1, 48 h, read-out: Activity
Hs-578T [2] = experiment: Cytotoxicity against human Hs 578T cells assessed as cell growth at 0.01 uM after 48 hrs by sulforhodamine B assay relative to control; conditions: read-out: Activity
COLO 205 = experiment: Cytotoxicity against human COLO205 cells assessed as cell growth at 10 uM after 48 hrs by sulforhodamine B assay relative to control; conditions: COLO 205, 48 h, read-out: Activity
SR [3] = experiment: Cytotoxicity against human SR cells assessed as cell growth at 100 uM after 48 hrs by sulforhodamine B assay relative to control; conditions: read-out: Activity
SK-MEL-28 [4] = experiment: Cytotoxicity against human SK-MEL-28 cells assessed as cell growth at 10 uM after 48 hrs by sulforhodamine B assay relative to control; conditions: SK-MEL-28, 48 h, read-out: Activity
OVCAR-3 = experiment: Cytotoxicity against human OVCAR3 cells assessed as cell growth at 1 uM after 48 hrs by sulforhodamine B assay relative to control; conditions: OVCAR-3, 48 h, read-out: Activity
SNB-19 = experiment: Cytotoxicity against human SNB19 cells assessed as cell growth at 100 uM after 48 hrs by sulforhodamine B assay relative to control; conditions: SNB-19, 48 h, read-out: Activity
SK-MEL-28 [5] = experiment: Cytotoxicity against human SK-MEL-28 cells assessed as cell growth at 100 uM after 48 hrs by sulforhodamine B assay relative to control; conditions: SK-MEL-28, 48 h, read-out: Activity
A498 = experiment: Cytotoxicity against human A498 cells assessed as cell growth at 10 uM after 48 hrs by sulforhodamine B assay relative to control; conditions: A498, 48 h, read-out: Activity
Hs-578T [6] = experiment: Cytotoxicity against human Hs 578T cells assessed as cell growth at 0.1 uM after 48 hrs by sulforhodamine B assay relative to control; conditions: read-out: Activity
HOP-62 = experiment: Cytotoxicity against human HOP62 cells assessed as cell growth at 0.1 uM after 48 hrs by sulforhodamine B assay relative to control; conditions: HOP-62, 48 h, read-out: Activity
NCI-H226 = experiment: Cytotoxicity against human NCI-H226 cells assessed as cell growth at 0.1 uM after 48 hrs by sulforhodamine B assay relative to control; conditions: NCI-H226, 48 h, read-out: Activity
M14 [7] = experiment: Cytotoxicity against human M14 cells assessed as cell growth at 0.1 uM after 48 hrs by sulforhodamine B assay relative to control; conditions: M14, 48 h, read-out: Activity
MDA-MB-435 = experiment: Cytotoxicity against human MDA-MB-435 cells assessed as cell growth at 1 uM after 48 hrs by sulforhodamine B assay relative to control; conditions: MDA-MB-435, 48 h, read-out: Activity
MDA-MB-468 = experiment: Cytotoxicity against human MDA-MB-468 cells assessed as cell growth at 10 uM after 48 hrs by sulforhodamine B assay relative to control; conditions: MDA-MB-468, 48 h, read-out: Activity
LOX IMVI = experiment: Cytotoxicity against human LOXIMVI cells assessed as growth inhibition after 48 hrs by sulforhodamine B assay
UACC-62 [8] = experiment: Cytotoxicity against human UACC62 cells assessed as cell growth at 100 uM after 48 hrs by sulforhodamine B assay relative to control; conditions: UACC-62, 48 h, read-out: Activity
UO-31 [9] = experiment: Cytotoxicity against human UO31 cells assessed as cell growth at 100 uM after 48 hrs by sulforhodamine B assay relative to control; conditions: UO-31, 48 h, read-out: Activity
SF-539 [10] = experiment: Cytotoxicity against human SF539 cells assessed as cell growth at 10 uM after 48 hrs by sulforhodamine B assay relative to control; conditions: SF-539, 48 h, read-out: Activity
T47D = experiment: Cytotoxicity against human T47D cells assessed as cell growth at 0.01 uM after 48 hrs by sulforhodamine B assay relative to control; conditions: read-out: Activity
SK-MEL-5 = experiment: Cytotoxicity against human SK-MEL-5 cells assessed as cell growth at 0.1 uM after 48 hrs by sulforhodamine B assay relative to control; conditions: SK-MEL-5, 48 h, read-out: Activity
UACC-62 [11] = experiment: Cytotoxicity against human UACC62 cells assessed as cell growth at 0.1 uM after 48 hrs by sulforhodamine B assay relative to control; conditions: UACC-62, 48 h, read-out: Activity
HCC 2998 = experiment: Cytotoxicity against human HCC2998 cells assessed as cell growth at 1 uM after 48 hrs by sulforhodamine B assay relative to control; conditions: HCC 2998, 48 h, read-out: Activity
NCI-H522 = experiment: Cytotoxicity against human NCI-H522 cells assessed as cell growth at 100 uM after 48 hrs by sulforhodamine B assay relative to control; conditions: NCI-H522, 48 h, read-out: Activity
HCT-116 [12] = experiment: Cytotoxicity against human HCT116 cells assessed as cell growth at 100 uM after 48 hrs by sulforhodamine B assay relative to control; conditions: HCT-116, 48 h, read-out: Activity
DU-145 = experiment: Cytotoxicity against human DU145 cells assessed as growth inhibition after 48 hrs by sulforhodamine B assay; conditions: DU-145, 48 h
OVCAR-5 = experiment: Cytotoxicity against human OVCAR5 cells assessed as cell growth at 1 uM after 48 hrs by sulforhodamine B assay relative to control; conditions: OVCAR-5, 48 h, read-out: Activity
MCF7 = experiment: Cytotoxicity against human MCF7 cells assessed as cell growth at 0.01 uM after 48 hrs by sulforhodamine B assay relative to control; conditions: MCF7, 48 h, read-out: Activity
HCT-116 [13] = experiment: Cytotoxicity against human HCT116 cells assessed as cell growth at 0.01 uM after 48 hrs by sulforhodamine B assay relative to control; conditions: HCT-116, 48 h, read-out: Activity
MDA-MB-231 = experiment: Cytotoxicity against human MDA-MB-231 cells assessed as growth inhibition after 48 hrs by sulforhodamine B assay; conditions: MDA-MB-231, 48 h
SR [14] = experiment: Cytotoxicity against human SR cells assessed as cell growth at 1 uM after 48 hrs by sulforhodamine B assay relative to control; conditions: read-out: Activity
M14 [15] = experiment: Cytotoxicity against human M14 cells assessed as growth inhibition after 48 hrs by sulforhodamine B assay; conditions: M14, 48 h
UACC-62 [16] = experiment: Cytotoxicity against human UACC62 cells assessed as growth inhibition after 48 hrs by sulforhodamine B assay; conditions: UACC-62, 48 h
UO-31 [17] = experiment: Cytotoxicity against human UO31 cells assessed as cell growth at 10 uM after 48 hrs by sulforhodamine B assay relative to control; conditions: UO-31, 48 h, read-out: Activity
UO-31 [18] = experiment: Cytotoxicity against human UO31 cells assessed as cell growth at 0.1 uM after 48 hrs by sulforhodamine B assay relative to control; conditions: UO-31, 48 h, read-out: Activity

COc1ccc(C(=O)/C=C/c2cc(-c3cc(OC)c(OC)c(OC)c3)n[nH]2)cc1 gave a GI50 (SF-539 [1]) of 1.62 µM, an LC50 (concentration killing 50% of cells) (SF-539 [1]) of 5.85 µM and a TGI (SF-539 [1]) of 3.08 µM. For the same compound, the growth at 100 µM (IGROV-1) was -29%, the growth at 0.01 µM (Hs-578T [2]) was 99% and the growth at 10 µM (COLO 205) was -90%. The growth at 100 µM (SR [3]) was -5%, the growth at 10 µM (SK-MEL-28 [4]) was -55% and the growth at 1 µM (OVCAR-3) was 89%. It also gave a growth at 100 µM (SNB-19) of -6%, a growth at 100 µM (SK-MEL-28 [5]) of -87% and a growth at 10 µM (A498) of -57%. For the same compound, the growth at 0.1 µM (Hs-578T [6]) was 100%, the growth at 0.1 µM (HOP-62) was 102% and the growth at 0.1 µM (NCI-H226) was 102%. For the same compound, the growth at 0.1 µM (M14 [7]) was 97%, the growth at 1 µM (MDA-MB-435) was 92% and the growth at 10 µM (MDA-MB-468) was -92%. The TGI (LOX IMVI) was 3.02 µM, the growth at 100 µM (UACC-62 [8]) was -48% and the growth at 100 µM (UO-31 [9]) was -79%. The growth at 10 µM (SF-539 [10]) was -92%, the growth at 0.01 µM (T47D) was 96% and the growth at 0.1 µM (SK-MEL-5) was 99%. For the same compound, the growth at 0.1 µM (UACC-62 [11]) was 100%, the growth at 1 µM (HCC 2998) was 94% and the growth at 100 µM (NCI-H522) was -62%. The growth at 100 µM (HCT-116 [12]) was -10%, the TGI (DU-145) was 2.83 µM and the growth at 1 µM (OVCAR-5) was 95%. It also gave a growth at 0.01 µM (MCF7) of 101%, a growth at 0.01 µM (HCT-116 [13]) of 100% and an LC50 (MDA-MB-231) greater than 100 µM. The growth at 1 µM (SR [14]) was 22%, the LC50 (concentration killing 50% of cells) (M14 [15]) was greater than 100 µM and the TGI (M14 [15]) was 4.93 µM. The TGI (UACC-62 [16]) was 3.65 µM, the growth at 10 µM (UO-31 [17]) was -93% and the growth at 0.1 µM (UO-31 [18]) was 96%.
Work on COc1ccc(-c2cc(/C=C/C(=O)c3cc(OC)c(OC)c(OC)c3)[nH]n2)cc1OC yielded a GI50 (SF-539 [1]) of 0.3 µM, an LC50 (concentration killing 50% of cells) (SF-539 [1]) of 4.57 µM and a TGI (SF-539 [1]) of 1.48 µM. The growth at 100 µM (IGROV-1) was -72%, the growth at 0.01 µM (Hs-578T [2]) was 95% and the growth at 10 µM (COLO 205) was -72%. For the same compound, the growth at 100 µM (SR [3]) was -14%, the growth at 10 µM (SK-MEL-28 [4]) was -49% and the growth at 1 µM (OVCAR-3) was 84%. It also gave a growth at 100 µM (SNB-19) of -77%, a growth at 100 µM (SK-MEL-28 [5]) of -82% and a growth at 10 µM (A498) of -28%. For the same compound, the growth at 0.1 µM (Hs-578T [6]) was 97%, the growth at 0.1 µM (HOP-62) was 80% and the growth at 0.1 µM (NCI-H226) was 90%. For the same compound, the growth at 0.1 µM (M14 [7]) was 92%, the growth at 1 µM (MDA-MB-435) was 85% and the growth at 10 µM (MDA-MB-468) was -62%. For the same compound, the GI50 (LOX IMVI) was 1.46 µM, the LC50 (LOX IMVI) was 5.7 µM and the TGI (LOX IMVI) was 2.88 µM. It also gave a growth at 100 µM (UACC-62 [8]) of -80%, a growth at 100 µM (UO-31 [9]) of -93% and a growth at 10 µM (SF-539 [10]) of -85%. The growth at 0.01 µM (T47D) was 91%, the growth at 0.1 µM (SK-MEL-5) was 102% and the growth at 0.1 µM (UACC-62 [11]) was 98%. It also gave a growth at 1 µM (HCC 2998) of 105%, a growth at 100 µM (NCI-H522) of -90% and a growth at 100 µM (HCT-116 [12]) of -61%. It also gave a GI50 (DU-145) of 1.83 µM, a TGI (DU-145) of 4.12 µM and a CC50 (DU-145; read-out: LC50 (the source's name)) of 9.28 µM. For the same compound, the growth at 1 µM (OVCAR-5) was 81%, the growth at 0.01 µM (MCF7) was 92% and the growth at 0.01 µM (HCT-116 [13]) was 100%. The GI50 (MDA-MB-231) was 2.02 µM, the LC50 (MDA-MB-231) was 55.4 µM and the TGI (MDA-MB-231) was 13.5 µM. For the same compound, the growth at 1 µM (SR [14]) was 5%, the GI50 (M14 [15]) was 1.8 µM and the LC50 (concentration killing 50% of cells) (M14 [15]) was 7.54 µM. It also gave a TGI (M14 [15]) of 3.69 µM, a GI50 (UACC-62 [16]) of 1.79 µM and an LC50 (UACC-62 [16]) of 8.39 µM. For the same compound, the TGI (UACC-62 [16]) was 3.88 µM, the growth at 10 µM (UO-31 [17]) was -95% and the growth at 0.1 µM (UO-31 [18]) was 82%.
